Laboratory results from patent publication US8409166B2, “Method for pressure mediated selective delivery of therapeutic substances and cannula” (The United States of America as represented by the …, priority 1998, dated 2013).

Columns and labels:
[1] = system: intrahepatic tight junctions; test: Constant pressure retrograde biliary infusion in mice (flow rate, resistance, paracellular leakage); settings: for Ave Counts (paracellular leakage): Cholestatic 04 day mice
Text: FIG. 35 is a diagram of a working example of a system for constant-pressure intralumenal delivery. […] A working model was regulated using an adaptation of a Cole-Palmer pressure controller. Infusion fluid from the reservoir flows through capillary glass tubes 224 on its way to an infusion line 226. Flow rates may then be determined by tracking air bubbles 228 in the capillary glass tubes 224 with a ruler 229. A pressure sensor 230 detects the pressure of the infusion fluid at a location near the infusion line 226.
To set up the system, fluid was added to the reservoir, and the system was rinsed and filled with fluid. The infusion line 226 was then surgically placed into the animal's organ. […] By adjusting the controller setting the desired pressure could be obtained at the pressure sensor, which was kept at the same height (z=0) as the animal. The reading at the pressure sensor was thus equal to the applied pressure (the pump pressure) plus the pressure head (the pressure increase due to the change in height between the top of the liquid level in the reservoir and the height of the infusion line). The infusion line was kept at the same height as the pressure sensor and the animal on the operating table. Alternate systems could be of course be adapted in which a constant pressure is maintained at the pressure sensor and not at the top of the Reservoir. This would be most important when a large volume of fluid is infused.
The flow rate of infusion fluid was experimentally recorded in the following way: the cross sectional area of the bubble tube was determined by injecting a known volume of water (from syringe 232) into a measured length of the bubble tube. The cross sectional area was 0.0233 cm^2 (0.35 cc in 15 cm). When the flow started, an air bubble was slowly injected into the infusion fluid flow. The bubble then traveled down the bubble tube. At the end of the tube, the bubble would rise up into the bubble trap 234 and displace an equal volume of liquid. For each bubble 25 time points were recorded, on 1-cm intervals of ruler 229. The time versus distance that the bubble had traveled could be plotted and the slope of this line was the velocity of the bubble. Multiplying the slope by the cross sectional area of the bubble tube gave the average flow rate of the infusion fluid. This method of flow rate measurement is a working and experimental model for the purpose of illustration. In practice, flow rates may also be determined by ultrasonic or other methods known to those of skill in the art.
Constant pressure infusion was evaluated in mice using the retrograde biliary infusion setup described previously. The constant pressure device was substituted for the microinfusion pump. […] Infusion flow rates were recorded using the bubble tube method described above. Blood samples were obtained and evaluated as described above.
Solutes evaluated included sucrose (molecular weight 370), inulin (molecular weight 5,200), and Dextran (molecular weight 70,000).

[2] = system: interhepatocyte tight junctions; test: Retrograde biliary infusion of lanthanum chloride, electron microscopy of intrahepatic distribution; format: in vivo, mice; settings: 720 μl of 5 mM at 2 or 8 μl/second
Experimental: Movement of fluid from the intralumenal space may conceivably occur either directly across physically opened tight junctions or indirectly by altered rates of transepithilial transcytosis. […] The ability of retrograde biliary infusion to disrupt tight junctions was evaluated by qualitative ultrastructural examination of the intrahepatic distribution of lanthanum chloride, a heavy metal normally impermeant to structurally intact tight junctions.
Animals were infused retrograde with either 5 mM lanthanum chloride (Sigma) or 0.9% NaCl vehicle. Three infusions of 240 μl volume were administered per animal at a rate of 2 or 8 μl/second, with a 10 second pause between infusions. Freshly removed tissue was fixed overnight in 2% glutaraldehyde in 0.2 M cacodylate buffer. Following standard processing and embedding, 0.5 micrometer thick sections were stained with uranyl acetate and lead citrate. Sections were then examined using a Philips 201 Electron Microscope.

[3] = system: urinary bladder epithelial cell tight junctions; test: Intralumenal delivery to the rabbit urinary bladder (electron and fluorescent microscopy); format: in vivo, Dutch Belted Rabbits; settings: 5 mM, 10 minutes
Text: As an experimental model to mimic retrourethral delivery, male Dutch Belted Rabbits (1-2 Kg BW) had PE-50 tubing placed in the lumen of each […] and advanced so that the tips were within the lumen of the urinary bladder. One ureteral catheter was connected to a pressure transducer and used for recording intralumenal pressure. The other ureteral catheter was connected to a microinfusion pump. Microvascular clips were placed on the ureters to prevent retrograde reflux. The urethra was occluded using a vascular loop. 5 mM Lanthanum Chloride was infused so that the intralumenal pressure was either 25 mm Hg or 50 mm Hg.
Tissues were removed 10 minutes later and processed for electron microscopy. […] Following the administration of 200 nm fluorescent latex microspheres at 50 mm-[…] intralumenal pressure, the urinary bladder was removed and processed for fresh-frozen sections.

[4] = constant pressure retrograde biliary infusion

## OC[C@H]1O[C@@](CO)(O[C@H]2O[C@H](CO)[C@@H](O)[C@H](O)[C@H]2O)[C@@H](O)[C@@H]1O [[14C]-sucrose]
[1]; mouse, in vivo
  appearance in systemic bloodstream: detected in the systemic bloodstream

## [Cl][La]([Cl])[Cl] [lanthanum chloride]
[2]
  electron dense deposits at bile ducts: found within bile ducts but not in their adjacent subepithelial tissue compartments
  electron dense deposits at canaliculi and subepithelial compartments: within biliary canaliculi, interhepatocyte cell spaces, and the perisinusoidal Space of Disse
[3]; intralumenal pressure 25 mm Hg
  electron microscopy finding in urinary bladder: electron dense deposits were detected in the intercellular spaces between epithelial cells
[3]; intralumenal pressure 50 mm Hg
  electron microscopy finding in urinary bladder: some evidence of patchy epithelial denudation

## Dextran
[1]; [4]
  appearance in systemic bloodstream: detected in the systemic bloodstream

## [14C]-inulin
[1]; 10 mmHg
  Ave Counts (paracellular leakage): 27
[1]; 20 mmHg
  Ave Counts (paracellular leakage): 2534
[1]; 40 mmHg
  Ave Counts (paracellular leakage): 20134
[1]; [4]
  appearance in systemic bloodstream: detected in the systemic bloodstream
